# Reference: US10085976B2, “Pharmaceutical composition for preventing or treating neurodegenerative diseases” (AJOU UNIVERSITY INDUSTRY-ACADEMIC COOPERATION FOUNDATION, priority 2015, dated 2018)
# Tests used:
# BV-2 cells [1] = test: Phagocytosis assay with fluorescent microspheres, aggregated α-syn-treated BV-2 cells; format: cell-based, murine; conditions: 20 μM pre-incubation 30 minutes, then 1 NM of aggregated α-syn and fluorescent microspheres for 12 hours, FIG. 4D
# Protocol: (§1) FIGS. 4D and 4E are graphs showing phagocytic activity after pre-incubating BV-2 cell and rat primary microglia with 20 μM of NSC87877 as an SHP-1 inhibitor for 30 minutes, and then incubating them with 1 NM of aggregated α-syn and fluorescent microspheres for 12 hours. ** P<0.01 represents a comparison with the control group.
# (§2) Further, BV-2 cells, a murine microglial cell line, were grown in Dulbecco's modified Eagle's Medium (DMEM) supplemented with 5% fetal bovine serum (FBS) and maintained at 37° C. in a humidified atmosphere of 5% CO2. Rat primary microglia from the cerebral cortices of 1-day-old Sprague-Dawley rats were cultured as described in the known literature (Kim, K. S., et al., 2012. J Biol Chem. 287, 24862-72.).
# (§3) Briefly, BV-2 cells (5×10^4 cells per well) were cultured in a 12 well plate overnight. The medium was then removed and replaced with fresh DMEM containing 5% FBS. […] The five random fields of cells (>100 cells) were counted under a confocal microscope (Zeiss, Germany). Percentage of phagocytic cells was analyzed by a known method (Park, J. Y., et al., 2008. Glia. 56, 1215-23.). For cell viability assay, BV-2 cells were treated with 1 μM of aggregated α-syn for 12 hours, and then LDH release was measured using an LDH-cytotoxicity assay kit (Biovision, CA) according to the manufacturer's instructions. […]
# rat primary microglia = test: Phagocytosis assay with fluorescent microspheres, aggregated α-syn-treated rat primary microglia; format: cell-based; conditions: 20 μM pre-incubation 30 minutes, then 1 NM of aggregated α-syn and fluorescent microspheres for 12 hours, FIG. 4E
# Protocol: as §1, §2, §3
# BV-2 cells [2] = test: α-syn propagation, two-chamber co-culture with α-syn-overexpressed SH-SY5Y cells, immunostaining (BV-2); format: cell-based, murine; conditions: co-culture 12 hours, vs PBS-treated group, FIGS. 10B, 10E
# Protocol: FIGS. 10B and 10E are images and graphs showing that α-syn propagation was reduced by treatment of SHP-1/2 inhibitor, NSC87877. *** P<0.001 represents a comparison with the PBS-treated group.
# (§4) The prepared SHP-1 knockdown SH-SY5Y dopaminergic neuronal cell lines (SHP-1 KD1 and SHP-1 KD2) were co-cultured with α-syn-overexpressed SH-SY5Y dopaminergic neuronal cell line using the two-chamber system for 12 hours. The co-culture is briefly summarized as follows. SH-SY5Y or BV2 or OLN93 cell was seeded at a density of 4×10^4 cell per well on a 12-well cover glass, and α-syn-overexpressed SH-SY5Y cell was seeded at a density of 4×10^4 cell per well on a 12-well transwell. Each of the cells was incubated for one day, and then the transwell (α-syn-overexpressed SH-SY5Y cell) was transferred to the 12-well cover glass (SH-SY5Y cell), followed by co-culture for 12 hours, and then immunostaining.
# SH-SY5Y cells = test: α-syn propagation, two-chamber co-culture with α-syn-overexpressed SH-SY5Y cells, immunostaining (SH-SY5Y); format: cell-based, human; conditions: co-culture 12 hours, vs PBS-treated group, FIGS. 10I, 10K
# Protocol: FIGS. 10I and 10K are images and graphs showing that propagation of aggregated α-syn is reduced in SH-SY5Y cell line treated with the SHP-1,2 inhibitor NSC87877, similar to the SHP-1 knockdown cells. *** P<0.001 represents a comparison with the PBS-treated group.
# as §4
# OLN 93 cell line = test: α-syn propagation, two-chamber co-culture with α-syn-overexpressed SH-SY5Y cells, immunostaining (OLN 93); format: cell-based; conditions: OLN 93 cells; co-culture 12 hours; vs PBS-treated group; FIGS. 10N, 10P
# Protocol: FIGS. 10N and 10P are images and graphs showing that propagation of α-syn is reduced in OLN 93 cell line treated with the SHP-1,2 inhibitor NSC87877. *** P<0.001 represents a comparison with the PBS-treated group.
# as §4
# rat microglia = test: α-syn propagation, two-chamber co-culture with α-syn-overexpressed SH-SY5Y cells, immunostaining (primary microglia); format: cell-based; conditions: vs PBS-treated group, FIGS. 10C, 10F
# Protocol: FIGS. 10C and 10F are images and graphs showing that α-syn propagation was reduced in rat microglia by treatment of the SHP-1/2 inhibitor, NSC87877. Scale bar indicates 20 μm, and *** P<0.001 represents a comparison with the PBS-treated group.
# as §4
# [3] = tested on: differentiated SH-SY5Y cells; test: LDH release cytotoxicity assay, aggregated α-syn on differentiated SH-SY5Y dopaminergic neurons; format: cell-based, human; conditions: 1 μM aggregated α-syn and 50 μM inhibitor for 2 days, FIG. 12B
# Excerpt: FIG. 12B is a graph showing the effect of the SHP-1/2 inhibitor, NSC87877 on cytotoxicity of aggregated α-syn in undifferentiated SH-SY5Y cells and differentiated SH-SY5Y cells.
# FIGS. 12C and 12D are images and graphs showing the effect of the SHP-1/2 inhibitor, NSC87877 on cytotoxicity of aggregated α-syn in differentiated SH-SY5Y cells. ** P<0.01 represents a comparison with the PBS-treated SHSY5Y.
# To differentiate SH-SY5Y cells to dopaminergic neurons, SH-SY5Y cells seeded in a culture plate were cultured in a medium containing 50 μM of retinoic acid for 5 days. In this regard, the medium was replaced by a fresh medium containing 50 μM of retinoic acid at 3 days, 4 days, and 5 days after initiation of the culture. Further, in order to assess cytotoxicity, the differentiated SH-SY5Y dopaminergic neurons and undifferentiated SH-SY5Y dopaminergic neurons were seeded in 12-well, respectively, followed by incubation for one day. Thereafter, they were cultured in a medium containing 1 μM of aggregated α-syn and 50 μM of the SHP-1/-2 inhibitor NSC87877 for 2 days, and LDH (lactate dehydrogenase) release assay was performed according to the manufacturer's instructions.
# [4] = tested on: A53Tα-syn-overexpressed SHSY5Y cells; test: Intracellular aggregation of eGFP-tagged A53T α-syn in co-culture, confocal microscopy; format: cell-based, human; conditions: co-culture with α-syn-overexpressed SHSY5Y, 5 days after treatment; FIG. 14C
# Protocol: FIG. 14C is an image of confocal microscopy after differentiation with retinoic acid for 5 days in the co-culture of A53Tα-syn-overexpressed SHSY5Y and α-syn-overexpressed SHSY5Y under treatment of the SHP-1/2 inhibitor, NSC87877. Scale bar indicates 20 μm.
# First, eGPF-tagged A53Tα-syn-overexpressed SHSY5Y cell line was prepared using lentivirus, and the prepared eGPP-tagged A53Tα-syn-overexpressed SHSY5Y cell line and α-syn-overexpressed SHSY5Y cell line were mixed, followed by co-culture. […] At 5 days after the co-culture, intracellular distribution of eGFP-tagged A53Tα-syn was observed under confocal microscopy.
# In this regard, the SHP-1/2 inhibitor, NSC87877 was treated and A53Tα-syn-overexpressed SHSY5Y cell line and α-syn-overexpressed SHSY5Y cell line were mixed, followed by co-culture. At 5 days after NSC 87877 treatment and co-culture, intracellular distribution of eGFP-tagged A53Tα-syn was observed under confocal microscopy.
structure (smiles),measurement,setting,value
O=S(=O)(O)c1ccc2cc(N=Nc3cc(S(=O)(=O)O)c4cccnc4c3O)ccc2c1 [NSC87877],Effect on inhibition of microglial phagocytosis by aggregated α-syn,BV-2 cells [1],efficiently rescued the inhibitory effect of aggregated α-syn on microglial phagocytosis
same,Effect on inhibition of microglial phagocytosis by aggregated α-syn,rat primary microglia,efficiently rescued the inhibitory effect of aggregated α-syn on microglial phagocytosis
same,α-syn propagation,BV-2 cells [2],α-syn propagation was also reduced
same,α-syn propagation,SH-SY5Y cells,α-syn propagation was also reduced
same,α-syn propagation,OLN 93 cell line,α-syn propagation was also reduced
same,α-syn propagation,rat microglia,reduced α-syn propagation was observed
same,"Neurotoxicity (cytotoxicity, LDH release) by aggregated α-syn",[3],neurotoxicity by aggregated α-syn was reduced
same,Intracellular aggregation of eGFP-tagged A53Tα-syn (eGFP distribution),[4],no aggregation in the cells
